For experiment [1], the target named is T1, Xanthine oxidase (XO) (Bos taurus, UniProt P80457).
T1 construct: purchased Sigma-Aldrich (Shanghai, P. R. China)
Nature of the experiment: Determination of inhibition type (Line-weaver Burk plot). The experiment is classed as biochemical. Particulars: Line-weaver Burk plot analysis toward XO.

Experiment [2] has as its target T1, Xanthine oxidase (XO). Kind of experiment: XO inhibitory activity of phenolic compounds (absorbance at 292 nm). It is filed as biochemical. The note with it: XO 0.1 U/ml, 37°C, 15 min preincubation; mean ± SD.
A further experiment has as its system XO. Particulars: cited from earlier work; for IC50: read-out: IC50 against XO.

Like-named read-outs stand apart in the source and are kept apart here. A value given as a limit tells only on which side of the number the result lay.

The text below walks through data of PMC9531272, “Xanthine oxidase inhibitory study of eight structurally diverse phenolic compounds” (Frontiers in Nutrition, 2022).

T1 sequence (P80457 whole entry): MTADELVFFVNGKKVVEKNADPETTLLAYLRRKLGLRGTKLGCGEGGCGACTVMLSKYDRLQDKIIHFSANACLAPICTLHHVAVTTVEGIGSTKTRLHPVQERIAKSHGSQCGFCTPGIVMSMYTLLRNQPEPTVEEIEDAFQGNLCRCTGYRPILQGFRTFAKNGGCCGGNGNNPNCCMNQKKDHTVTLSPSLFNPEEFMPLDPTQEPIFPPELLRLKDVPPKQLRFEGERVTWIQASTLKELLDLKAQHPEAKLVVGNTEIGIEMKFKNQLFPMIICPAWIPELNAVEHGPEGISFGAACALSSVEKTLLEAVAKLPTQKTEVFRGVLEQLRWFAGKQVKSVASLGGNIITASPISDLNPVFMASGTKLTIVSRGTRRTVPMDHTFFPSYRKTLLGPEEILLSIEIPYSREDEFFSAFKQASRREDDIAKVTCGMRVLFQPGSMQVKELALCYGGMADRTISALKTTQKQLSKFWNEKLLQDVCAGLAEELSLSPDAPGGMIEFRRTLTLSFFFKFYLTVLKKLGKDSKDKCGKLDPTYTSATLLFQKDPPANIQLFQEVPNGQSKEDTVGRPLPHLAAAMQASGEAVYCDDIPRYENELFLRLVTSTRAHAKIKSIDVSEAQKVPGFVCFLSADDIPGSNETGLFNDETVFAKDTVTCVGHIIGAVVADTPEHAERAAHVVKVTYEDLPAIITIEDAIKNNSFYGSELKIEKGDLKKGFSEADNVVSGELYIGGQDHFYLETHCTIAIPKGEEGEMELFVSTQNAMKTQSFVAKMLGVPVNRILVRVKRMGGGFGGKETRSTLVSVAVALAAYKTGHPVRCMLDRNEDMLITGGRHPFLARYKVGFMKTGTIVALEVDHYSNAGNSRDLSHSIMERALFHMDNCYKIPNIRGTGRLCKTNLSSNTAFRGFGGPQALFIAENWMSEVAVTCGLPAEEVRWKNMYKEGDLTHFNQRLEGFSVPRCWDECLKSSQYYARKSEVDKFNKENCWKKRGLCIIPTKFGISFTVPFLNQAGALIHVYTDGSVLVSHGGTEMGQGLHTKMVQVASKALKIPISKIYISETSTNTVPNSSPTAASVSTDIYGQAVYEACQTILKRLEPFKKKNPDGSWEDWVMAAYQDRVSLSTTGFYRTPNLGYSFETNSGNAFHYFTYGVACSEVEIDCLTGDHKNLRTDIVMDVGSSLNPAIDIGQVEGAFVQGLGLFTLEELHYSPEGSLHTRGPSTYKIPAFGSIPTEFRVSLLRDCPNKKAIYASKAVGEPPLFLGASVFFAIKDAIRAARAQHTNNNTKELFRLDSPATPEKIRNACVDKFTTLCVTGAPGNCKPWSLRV

`O=c1c(O)c(-c2ccc(O)c(O)c2)oc2cc(O)cc(O)c12` [C1, quercetin]: the Inhibition type result on Xanthine oxidase (XO) [1] is on record as “Mixed”.

As to `O=C(/C=C/c1ccc(O)c(O)c1)O[C@@H]1[C@H](O)C[C@@](O)(C(=O)O)C[C@H]1OC(=O)/C=C/c1ccc(O)c(O)c1` [C3, 4,5-O-dicaffeoylquinic acid], half-maximal inhibition on Xanthine oxidase (XO) [2] (IC50) was put at 26.7 ± 1.2 µM. At Xanthine oxidase (XO) [1], the Inhibition type entry was “Mixed”.

As to `O=C(O)/C=C/c1ccc(O)c(O)c1` [C8, caffeic acid], the IC50 (as a rule, the midpoint of a concentration-inhibition curve) at Xanthine oxidase (XO) [2] was 95.6 ± 3.28 µM; in the experiment with XO (ref Chan et al. ([31])), above 50 µM; in the experiment with XO (ref Nguyen et al. ([33])), 85.3 µM; in the experiment with XO (ref Wang et al. ([28])), 53.5 µM; in the experiment with XO (ref Wang et al. ([30])) it was 65.6 ± 2.71 µM. In the experiment with XO (at 125 μM concentration, ref Song et al. ([29])), the XO inhibition is listed as 5.74 ± 2.64%.

On Xanthine oxidase (XO) [2], `O=C(/C=C/c1ccc(O)c(O)c1)O[C@@H]1C[C@](O)(C(=O)O)C[C@@H](O)[C@H]1O` [C7, 3-O-caffeoylquinic acid] returned an IC50 of 80.9 ± 3.06 µM. In addition, on Xanthine oxidase (XO) [1], the Inhibition type result was “Competitive”.

`O=C(/C=C/c1ccc(O)c(O)c1)O[C@H]1[C@H](O)C[C@](O)(C(=O)O)C[C@H]1OC(=O)/C=C/c1ccc(O)c(O)c1` [C5, 3,4-O-di-caffeoylquinic acid] showed a half-maximal inhibitory concentration (IC50) against Xanthine oxidase (XO) [2] of 44.6 ± 1.65 µM. Further, the Inhibition type result on Xanthine oxidase (XO) [1] was “Competitive”.

`Oc1ncnc2[nH]ncc12` [Allopurinol, allopurinol, reference compound]: the IC50 in the experiment on XO (ref Wang et al. ([28])) is 6.96 µM.

`O=C(/C=C/c1ccc(O)c(O)c1)O[C@@H]1CC(O)(C(=O)O)C[C@@H](OC(=O)/C=C/c2ccc(O)c(O)c2)C1O` (some centres unmarked) [C4, 3,5-O-dicaffeoylquinic acid] yielded a half-inhibitory concentration (IC50) against Xanthine oxidase (XO) [2] of 28.9 ± 1.02 µM. Further, the Inhibition type entry at Xanthine oxidase (XO) [1] is on record as “Competitive”.

Molecule `C[C@@H]1O[C@@H](Oc2c(-c3ccc(O)c(O)c3)oc3cc(O)cc(O)c3c2=O)[C@H](O)[C@H](O)[C@H]1O` [C2, quercetin-3-rhamnoside] had an IC50 on Xanthine oxidase (XO) [2] of 12.1 ± 0.65 µM. The Inhibition type entry on Xanthine oxidase (XO) [1] is “Competitive”.

`O=C(/C=C/c1ccc(O)c(O)c1)O[C@H]1[C@H](O)C[C@](O)(C(=O)O)C[C@H]1O` [C6, 4-O-caffeoylquinic acid]: 70.2 ± 2.25 µM corresponded to half-maximal inhibition against Xanthine oxidase (XO) [2] (IC50). Moreover, the Inhibition type result at Xanthine oxidase (XO) [1] was “Competitive”.
